Like-named read-outs stand apart in the source and are kept apart here.
Experiments:
HL-60 promyelocytes = assay: HL-60 cell differentiation assay; type: cell-based; conditions: dose-response study
Description: A dose-response study is conducted with 1α,24(S)-(OH)2 D2 in the HL-60 cell differentiation assay as described by DeLuca and Ostrom (DeLuca, H. F. and Ostrem, V. K., Prog. Clin. Biol. Res., vol. 259, pp. 41-55 (1988)). In this study, 1α,25-(OH)2 D3 is used as a positive control and appropriate solvents are used as negative controls. The following variables are evaluated: nonspecific acid esterase activity, nitroblue tetrazolium (NBT) reduction, and thymidine incorporation.

[1] = molecular target: T1, vitamin D serum binding protein (DBP) (Rattus norvegicus, UniProt P04276); assay: Affinity for vitamin D serum binding protein using vitamin D deficient rat serum
T1 sequence (P04276 17-476): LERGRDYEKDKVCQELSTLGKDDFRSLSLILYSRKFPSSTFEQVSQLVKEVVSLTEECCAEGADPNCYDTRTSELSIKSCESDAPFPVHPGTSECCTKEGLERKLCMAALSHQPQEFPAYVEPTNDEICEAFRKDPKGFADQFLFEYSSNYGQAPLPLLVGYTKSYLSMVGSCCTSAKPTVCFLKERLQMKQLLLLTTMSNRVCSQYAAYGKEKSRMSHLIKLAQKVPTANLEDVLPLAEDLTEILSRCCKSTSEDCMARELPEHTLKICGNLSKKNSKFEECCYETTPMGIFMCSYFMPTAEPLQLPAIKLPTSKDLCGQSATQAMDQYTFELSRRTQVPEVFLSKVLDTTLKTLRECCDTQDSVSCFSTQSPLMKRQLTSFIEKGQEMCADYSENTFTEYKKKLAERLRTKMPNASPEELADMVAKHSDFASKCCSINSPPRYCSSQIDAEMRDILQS
Text: In addition, the weak binding by the DBP was indicative of more rapid clearance, allowing for low toxicity.

[2] = Hypocalcemia and metabolic bone disease in chronic hemodialysis patients; type: in vivo, human; conditions: greater than 3.0 μg/day, twelve months
Description: A twelve-month, double-blind, placebo-controlled clinical trial is conducted with thirty men and women with renal disease who are undergoing chronic hemodialysis. […] Efficacy is evaluated by pre- and post-treatment comparisons of the two patient groups with regard to (a) direct measurements of intestinal calcium absorption, (b) total body calcium retention, (c) radial and spinal bone mineral density, or (d) determinations of serum calcium. Safety is evaluated by regular monitoring of serum calcium.

vitamin D receptor (VDR) = molecular target: T2, vitamin D receptor (VDR) (Homo sapiens, UniProt P11473); assay: Vitamin D-dependent transcriptional activation, growth hormone production in co-transfected COS-1 cells; type: cell-based
T2 sequence (P11473 1-427): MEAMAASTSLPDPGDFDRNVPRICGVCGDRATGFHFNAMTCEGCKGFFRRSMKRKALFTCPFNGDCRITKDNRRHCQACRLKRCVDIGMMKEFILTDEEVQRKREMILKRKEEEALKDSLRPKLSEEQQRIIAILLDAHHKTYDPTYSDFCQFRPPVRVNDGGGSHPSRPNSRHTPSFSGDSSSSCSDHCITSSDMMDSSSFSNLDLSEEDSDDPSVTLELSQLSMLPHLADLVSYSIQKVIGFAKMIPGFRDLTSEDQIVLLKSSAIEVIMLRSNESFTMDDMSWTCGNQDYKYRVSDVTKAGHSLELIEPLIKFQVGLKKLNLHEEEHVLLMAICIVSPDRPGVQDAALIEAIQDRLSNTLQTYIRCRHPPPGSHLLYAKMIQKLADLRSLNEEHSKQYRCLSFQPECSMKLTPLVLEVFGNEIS
Description: The biological activity in vitro of chemically synthesized 1α,24(S)-(OH)2 D2 and 1α,24(R)-(OH)2 D2 was measured using a vitamin D-dependent transcriptional activation model system in which a vitamin D receptor (VDR)-expressing plasmid pSG5-hVDR1/3and a plasmid p(CT4)^4 TKGH containing a Growth Hormone (GH)-gene, under the control of a vitamin D-responsive element (VDRE) were co-transfected into Green monkey kidney, COS-1 cells. DNA's for these two vectors were supplied by Dr. Mark Haussler, Department of Biochemistry, University of Arizona, Tucson, Ariz.
Tranfected cells were incubated with vitamin D metabolites and growth hormone production was measured.

[3] = Dose ranging study in postmenopausal osteoporotic women; type: in vivo, human; conditions: oral 0.5 to 8.0 μg/day, escalated weekly over five weeks
Description: Twenty postmenopausal osteoporotic women are enrolled in an open label study.
On admission to the study, all patients receive instruction on selecting a daily diet containing 400 to 600 mg of calcium. Compliance to this diet is verified at weekly intervals by 24-hour food records and by interviews with each patient.
All patients complete a one-week baseline period, a five-week treatment period, and a one-week post-treatment observation period. During the treatment period, patients orally self-administer 1α,24(S)-dihydroxyvitamin D2 at an initial dose of 0.5 μg/day for the first week, and at successively higher doses of 1.0, 2.0, 4.0, and 8.0 μg/day in each of the following four weeks. All doses are administered before breakfast.
Blood and urine chemistries are monitored on a weekly basis throughout the study. Key blood chemistries include fasting serum levels of-calcium, phosphorus, osteocalcin, creatinine, and blood urea nitrogen. Key urine chemistries include 24-hour excretion of calcium, phosphorus, and creatinine.

[4] = tested on: BCA-1 or ZR-75-1 (breast) and COL-1 (colon); assay: Antiproliferative activity in human cancer cell lines, thymidine incorporation; type: cell-based; conditions: dose-response studies
Description: Dose-response studies are conducted with 1α,24(S)-(OH)2 D2 in a battery of human cancer cell lines. These cell lines include, but are not limited to, the following: BCA-1 or ZR-75-1 (breast) and COL-1 (colon), as described by Shieh, H. L. et al. Chem. Biol. Interact., vol. 81, pp. 35-55 (1982). In this study, appropriate solvents are used as negative controls.

Binding affinity for the vitamin D serum binding protein (in words) [1]: relatively poor binding affinity
Binding affinity for the vitamin D serum binding protein (in words) ([1]; listed as 1α,24(S)-dihydroxy vitamin D2): more weakly than does 1,25-(OH)2 D3
Activity in the transcriptional activation system compared with 1α,24(R)-(OH)2 D2 (vitamin D receptor (VDR)): significantly more activity
SMILES: C=C1/C(=C\C=C2/CCC[C@]3(C)[C@@H]([C@H](C)/C=C/[C@@](C)(O)C(C)C)CC[C@@H]23)C[C@@H](O)C[C@@H]1O [1α,24(S)-(OH)2 D2, 1α,24(S)-dihydroxy Vitamin D2]
Promotion of differentiation of HL-60 promyelocytes to monocytes (HL-60 promyelocytes): potent activity
Incidence of hypercalcemia [2]: insignificant incidence of hypercalcemia
Radial and spinal bone densities [2]: stable radial and spinal bone densities relative to baseline values
Serum calcium levels [2]: normalized serum calcium levels
Total body calcium [2]: stable values for total body calcium
24-hour urinary calcium levels [3]: modest increases
Routinely monitored serum parameters [3]: no effect on any routinely monitored serum parameters
Serum osteocalcin levels [3]: increases in serum osteocalcin levels
Urinary excretion of hydroxyproline [3]: nor does it increase urinary excretion of hydroxyproline
Antiproliferative activity, inhibition of thymidine incorporation [4]: potent (and reversible) antiproliferative activity

Reference: patent publication US6143910A, “Methods for preparation and use of 1α, 24(S) -dihydroxy vitamin D2” (priority 1998, dated 2000)
